According to patent US12590093B2, “Indolo[2′,3′:3,4]pyrido[2,1-b]quinazoline compound and use thereof” (INSTITUTE OF MEDICINAL BIOTECHNOLOGY CHINESE ACADEMY OF …, priority 2019, dated 2026):
Entries after “also recorded” stand apart in the source; their conditions may differ.

Assays:
LXRβ = molecular target: T1, LXRβ (Homo sapiens, UniProt P55055); assay: Nuclear receptor reporter gene transient transfection (pBIND-hLXRs-LBD) in HepG2 cells, LXRβ; type: cell-based
T1 construct: expressed in transfected cells; host or cells: HepG2
T1 sequence (P55055 222-460 limits assumed): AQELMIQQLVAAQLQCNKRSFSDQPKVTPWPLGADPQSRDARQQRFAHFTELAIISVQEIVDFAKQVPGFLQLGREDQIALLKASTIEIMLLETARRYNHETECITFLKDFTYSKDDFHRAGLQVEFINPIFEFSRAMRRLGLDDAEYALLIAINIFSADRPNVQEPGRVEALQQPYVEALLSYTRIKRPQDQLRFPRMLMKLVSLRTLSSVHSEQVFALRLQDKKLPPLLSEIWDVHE
Description: (§1) HepG2 cells in logarithmic growth phase were digested, seeded into the white/clear 96-well plate at a density of 5×10^4 cells/well/100 μL until the cells grew to about 90% confluence and in good condition. 0.5 μL liposome (Lipofectamine® 2000) diluted with blank medium to 25 μL per well and incubated at room temperature for 5 min. The corresponding plasmids DNA (nuclear receptor plasmid:Gal4=1:10) were diluted in blank DMEM medium to 25 μL/well (mixing of two plasmids), then mixed evenly with the diluted liposome, and incubated for 20 min at 37° C. The DNA-liposome complex (50 μL per well) was added with the DMEM complete medium (100 μL per well) and mixed thoroughly to obtain a DNA-liposome complex cell culture. The cell medium was discarded, and replaced with the DNA-liposome complex cell culture (150 μL/well) (37° C., 5% CO2). After 6 h, the DNA-liposome complex cell culture medium was discarded, and 200 μL serum-free DMEM medium containing the compound at an appropriate concentration was added to each test well, and cultured for 18-24 h. The cell Luciferase activity was measured by the method as described in the Luciferase Assay System.

PPARα = molecular target: T2, PPARα (Homo sapiens, UniProt Q07869); assay: Nuclear receptor reporter gene transient transfection (pBIND-hPPARs-LBD) in HepG2 cells, PPARα; type: cell-based; conditions: FIG. 2, result in words
T2 construct: expressed in transfected cells; host or cells: HepG2
T2 sequence (Q07869 239-466 limits assumed): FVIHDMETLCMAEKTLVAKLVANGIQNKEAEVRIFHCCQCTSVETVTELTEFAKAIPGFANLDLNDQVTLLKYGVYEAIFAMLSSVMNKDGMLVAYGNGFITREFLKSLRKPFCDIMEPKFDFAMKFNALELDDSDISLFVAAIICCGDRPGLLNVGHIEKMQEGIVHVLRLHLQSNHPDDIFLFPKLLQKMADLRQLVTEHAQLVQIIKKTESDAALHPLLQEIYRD
Description: as §1

PPARδ = molecular target: T3, PPARδ (Homo sapiens, UniProt Q03181); assay: Nuclear receptor reporter gene transient transfection (pBIND-hPPARs-LBD) in HepG2 cells, PPARδ; type: cell-based; conditions: FIG. 2, result in words
T3 construct: expressed in transfected cells; host or cells: HepG2
T3 sequence (Q03181 211-439 limits assumed): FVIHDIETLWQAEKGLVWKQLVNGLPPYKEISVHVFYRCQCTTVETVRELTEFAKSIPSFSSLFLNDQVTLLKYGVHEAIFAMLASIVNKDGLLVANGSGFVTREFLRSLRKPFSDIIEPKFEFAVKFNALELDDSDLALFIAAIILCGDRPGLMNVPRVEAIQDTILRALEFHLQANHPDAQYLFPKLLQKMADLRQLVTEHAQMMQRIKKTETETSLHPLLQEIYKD
Description: as §1

ApoE^−/− mice [1] = assay: Atherosclerosis model in ApoE−/− mice on high-fat diet, Oil Red O staining of aorta; type: in vivo; conditions: 5 mg/kg intragastrically, 12 weeks, HFD, versus model group
Description: (§2) 6-week-old male C57/BL6 ApoE^−/− mice were fed on normal chaw diet for one week. The mice were randomly divided into three groups (control group, high-fat diet model group, and treatment group, 12 mice per group) according to the body weight. From 7-week-old, the high-fat diet model group and the treatment group were fed on a high fat diet (HFD) (0.15% cholesterol and 20% fat), and the control group was fed on normal chow diet. The treatment group (R3) mice were administered intragastrically with TR3 (5 mg/kg). The control group and the high-fat diet model group mice were intragastrically administered with sodium carboxymethylcellulose (CMC-Na) solution. After 12 weeks of administration, all mice were fasted overnight. The blood sample was taken from the retro-orbital plexus, collected in a EP tube, and then centrifuged for 15 min (2500 rpm). The centrifuged serum (upper layer) was transferred to new EP tubes (divided into two aliquots) and stored at −20° C. for further use. The mice were fixed, and the skin was cut open along the midline of the abdomen to the neck. The abdominal cavity was cut open to collect the fresh liver tissue. The Liver tissue was put into 3 freezing tubes, and then immediately put into liquid nitrogen for subsequent detection of liver lipid detection and extraction of RNA and protein. The thorax was cut open to expose the heart. […]

ApoE^−/− mice [2] = assay: Serum lipid levels in ApoE−/− mice; type: in vivo; conditions: 5 mg/kg intragastrically, 12 weeks, HFD, versus model group
Description: (§3) 6-week-old male C57/BL6 ApoE^−/− mice were fed on normal chaw diet for one week. The mice were randomly divided into three groups (control group, high-fat diet model group, and treatment group, 12 mice per group) according to the body weight. From 7-week-old, the high-fat diet model group and the treatment group were fed on a high fat diet (HFD) (0.15% cholesterol and 20% fat), and the control group was fed on normal chow diet. The treatment group (R3) mice were administered intragastrically with TR3 (5 mg/kg). The control group and the high-fat diet model group mice were intragastrically administered with sodium carboxymethylcellulose (CMC-Na) solution. After 12 weeks of administration, all mice were fasted overnight. The blood sample was taken from the retro-orbital plexus, collected in a EP tube, and then centrifuged for 15 min (2500 rpm). The centrifuged serum (upper layer) was transferred to new EP tubes (divided into two aliquots) and stored at −20° C. for further use. The mice were fixed, and the skin was cut open along the midline of the abdomen to the neck. The abdominal cavity was cut open to collect the fresh liver tissue. The Liver tissue was put into 3 freezing tubes, and then immediately put into liquid nitrogen for subsequent detection of liver lipid detection and extraction of RNA and protein. The thorax was cut open to expose the heart. The heart was perfused with 10 ml PBS, and then fixed by perfusion with 4% paraformaldehyde solution until the liver turned white. The fixed liver was taken out and placed in a six-well plate containing 4% paraformaldehyde solution for further fixation. The full-length aorta (from the ascending aorta to the common iliac arteries) was isolated and placed in a six-well plate containing 4% paraformaldehyde solution. The aorta was fixed in 4% paraformaldehyde solution overnight and then stored in 20% sucrose solution at 4° C.
The plasma biochemical indices were measured by using commercially available kits (Biosino Bio-technology and Science Inc., China) and the automatic biochemical analyzer.

NLRP3 inflammasome = assay: Western-blot of NLRP3 inflammasome proteins in liver of ApoE−/− mouse and J774A1 cells; type: in vivo, mice
Description: as §3
(§4) When animal tissues were used to prepare protein samples, the tissues were firstly homogenized and lysed in the RIPA lysis buffer. The subsequent steps were the same as those for preparing protein samples from cells. When cell supernatants were used to prepare protein samples, the supernatants were freeze-dried, needed to be extracted using a protein recovery kit (Applygen, Beijing, China), and then analyzed by western-blot.
The western-blot was used to detect the effects of TR3 on the activation of NLRP3 inflammasome and other related proteins in the liver of ApoE^−/− mouse and J774A1 cells.

NF-κB signaling pathway = assay: Western-blot of NF-κB signaling pathway in liver of ApoE−/− mice; type: in vivo; conditions: FIG. 7
Description: as §2, with “use.” for “use. The mice were fixed, and the skin was cut open along the midline of the abdomen to the neck. The abdominal cavity was cut open to collect the fresh liver tissue. The Liver tissue was put into 3 freezing tubes, and then immediately put into liquid nitrogen for subsequent detection of liver lipid detection and extraction of RNA and protein. The thorax was cut open to expose the heart.”
as §4, with “The subsequent steps were the same as those for preparing protein samples from cells.” left out, “western-blot. […]” for “western-blot.”

MAPK signaling pathway = assay: Western-blot of MAPK signaling pathway in ApoE−/− mice; type: in vivo; conditions: FIG. 8
Description: as §3, with “The full-length aorta (from the ascending aorta to the common iliac arteries) was isolated and placed in a six-well plate containing 4% paraformaldehyde solution. The aorta was fixed in 4% paraformaldehyde solution overnight and then stored in 20% sucrose solution at 4° C.” left out
as §4, with “The subsequent steps were the same as those for preparing protein samples from cells.” left out, “western-blot. […]” for “western-blot.”

SR-BI = SR-BI protein expression in liver of ApoE−/− mice; type: in vivo; conditions: FIG. 10
Description: as §2, with “use.” for “use. The mice were fixed, and the skin was cut open along the midline of the abdomen to the neck. The abdominal cavity was cut open to collect the fresh liver tissue. The Liver tissue was put into 3 freezing tubes, and then immediately put into liquid nitrogen for subsequent detection of liver lipid detection and extraction of RNA and protein. The thorax was cut open to expose the heart.”
as §4, with “The subsequent steps were the same as those for preparing protein samples from cells.” left out

[3] = liver of ApoE−/− mouse and J774A1 cells, western-blot, FIG. 6

LXRβ max (LXRβ; HepG2 cells, reporter gene, 18-24 h): 1.42
SMILES: c1ccc2c(c1)CN1CCc3c([nH]c4ccccc34)C1=N2 [TR3, 5,7,8,13-tetrahydroindolo[2′,3′:3,4]pyrido[2,1-b]quinazoline]
LXRβ agonist activity (LXRβ; result in words): showed agonist activity; also recorded: simultaneously activated PPARα/γ/δ and LXRα/β to a certain extent | activation of PPARα (PPARα): simultaneously activated PPARα/γ/δ and LXRα/β to a certain extent | activation of PPARδ (PPARδ): simultaneously activated PPARα/γ/δ and LXRα/β to a certain extent | atherosclerotic plaque area in the aorta (ApoE^−/− mice [1]): significantly reduced | level of LDL-C in serum (ApoE^−/− mice [2]): greatly decreased | level of TC in serum (ApoE^−/− mice [2]): greatly decreased | level of TG in serum (ApoE^−/− mice [2]): greatly decreased | activation of NLRP3 inflammasome in the liver (NLRP3 inflammasome; liver of ApoE−/− mice): significantly inhibited | expression of Caspase-1 protein (NLRP3 inflammasome; [3]): significantly inhibited | expression of IL-1β protein (NLRP3 inflammasome; [3]): significantly inhibited | expression of NLRP3 protein (NLRP3 inflammasome; [3]): significantly inhibited | expression of p-IκBα (NF-κB signaling pathway): significantly inhibited | expression of p-P65 (NF-κB signaling pathway): significantly inhibited | expression of p-ERK (MAPK signaling pathway): also inhibited | expression of p-JNK (MAPK signaling pathway): also inhibited | expression of p-P38 (MAPK signaling pathway): also inhibited | expression of SR-BI in the liver (SR-BI): increased
